Data reported in patent US10647690B2, “2,3-epoxy succinyl derivative, preparation method and use thereof” (Institute of Pharmacology and Toxicology Academy of …, priority 2016, dated 2020).
Read-outs that look alike come from different tables or passages of the source.

Legend:
Type in all cases: biochemical
[1] = target: T1, Cathepsin K (Homo sapiens, UniProt P43235); experiment: Preliminary screening of Cathepsin K (Cathepsin K Inhibitor Screening Kit K150-100, Biovision); settings: relative inhibition rate vs 10 μM FF-FMK control
T1 construct: purchased Biovision K150-100
T1 sequence (P43235 115-329): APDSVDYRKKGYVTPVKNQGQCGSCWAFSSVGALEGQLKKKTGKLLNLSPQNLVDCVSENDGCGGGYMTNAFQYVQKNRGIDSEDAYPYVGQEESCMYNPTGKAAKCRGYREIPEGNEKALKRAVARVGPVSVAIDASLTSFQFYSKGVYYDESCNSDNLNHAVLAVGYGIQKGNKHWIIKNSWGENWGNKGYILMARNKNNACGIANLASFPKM
Description: 1. Method for preliminary screening of Cathepsin K:
Preliminary screening of Cathepsin K was performed by using Cathepsin K Inhibitor Screening Kit (Product No. K150-100) from Biovision Company.
1.1.1 Preparation of Cathepsin K enzyme solution: Cathepsin K enzyme (40 μl) and Cathepsin K reagent (80 μl) were added to Cathepsin K buffer (3.88 ml), and were mixed well, to prepare Cathepsin K enzyme solution with a volume of 4 ml, which was placed on ice for further use.
1.1.2 Preparation of a compound solution: different compounds were separately weighed and dissolved in DMSO (methyl sulfoxide), to prepare solutions at a concentration of 30 mM as stock solutions, and for some insoluble compounds, they were prepared into solutions at a concentration of 10 mM as stock solutions; the 30 mM and 10 mM compound stock solutions were diluted to 1 mM and 100 μM DMSO solutions, respectively; 1 mM and 100 μM compound DMSO solutions (2 μl) were separately added to CTSK buffer (18 μl), to prepare compound solutions at a final concentration of 100 μM and 10 μM, respectively, wherein the concentration of DMSO was 10%.
1.1.3 Preparation of Cathepsin K substrate solution: Cathepsin K substrate (160 μl) was added to Cathepsin K buffer (3.44 ml), and mixed homogeneously, to prepare Cathepsin K substrate solution with a volume of 3.6 ml, which was placed on ice for further use.
1.2 Method for screening Cathepsin K inhibitor: Cathepsin K enzyme solution (prepared in Item 1.1.1) was added to a 384-well plate (ProxiPlate-384 Plus, Perkinelmer) at 10 μl/well, and centrifuged at 1000 rpm for 1 min; the compound solution (prepared in Item 1.1.2) was then added at 2 µl/well, and centrifuged at 1000 rpm for 1 min, and every concentration was repeated in two wells; the plate was placed in a 25° C. incubator for 15 min; Cathepsin K substrate solution was then added at 8 μl/well, and centrifuged at 1000 rpm for 1 min; and finally, the fluorescence signal was read in Enspire, wherein the exciting light was at a wavelength of 400 nm, the emitting light was at a wavelength of 505 nm, and continuous reading was performed at 37° C. for 120 min.
1.3 Data analysis: the slope (S) for all the samples was calculated by ΔRFU (RFU2−RFU1) and time ΔT (T2−T1), including negative control (Enzyme Control, EC) and positive control (Inhibitor Control, IC: 10 μM FF-FMK), and the calculation formula was as followed: Relative inhibition rate %=(SEC−SS)/(SEC−SIC)*100.

[2] = target: T1, Cathepsin K; experiment: IC50 determination against Cathepsin K (Biovision kit K150-100); settings: CTSK
Description: (§1) 2. Method for determining IC50 of compounds against cathepsin:
IC50 of compounds against Cathepsin K was determined by using Cathepsin K Inhibitor Screening Kit (Product No. K150-100) from Biovision Company;
2.1.1.1 Preparation of Cathepsin K solution: Cathepsin K enzyme (23 μl) and Cathepsin K reagent (46 μl) were added to Cathepsin K buffer (2231 μl), and mixed well, to prepare Cathepsin K enzyme solution with a volume of 2.3 ml, which was placed on ice for further use.
(§2) 2.1.2 Preparation of compound solutions: 30 mM and 10 mM compound stock solutions, and control compounds were gradiently diluted in DMSO at a ratio of 1:3, wherein the maximum dilution fold was 19683; the gradiently diluted compound solution (3 μl) was added to Cathepsin K, B, L, and S buffer (27 μl), respectively, and mixed well, wherein the control compounds (FF-FMK, F-F-FMK, FF-FMK and Z-FF-FMK) were at the concentrations of 66.67, 22.22, 7.41, 2.47, 0.82, 0.27, 0.091, 0.03, 0.01, 0.0034 and 0 μM, respectively, the test compounds were at the concentrations of 1000, 333.3, 111.1, 37, 12.3, 4.1, 1.4, 0.46, 0.15, 0.05 and 0 μM, respectively, and the final concentration of DMSO was 10%.
2.1.3.1 Cathepsin K: Cathepsin K substrate (90 μl) was added to Cathepsin K buffer (1710 μl), and mixed well, to prepare Cathepsin K substrate solution with a volume of 1.8 ml, which was placed on ice for further use.
(§3) Method for screening cathepsin inhibitors: the cathepsin solution (prepared in Item 2.1.1) was added to a 384-well plate (ProxiPlate-384 Plus, Perkinelmer) at 10 μl/well, and centrifuged at 1000 rpm for Imin; the compound solution (prepared in Item 2.1.2) was then added at 2 μl/well, and every concentration was repeated in two wells; the final concentrations of the test compounds were 100, 33.3, 11.1, 3.7, 1.23, 0.41, 0.14, 0.046, 0.015, 0.005 and 0 μM, respectively, wherein the final concentration of DMSO was 1%; after centrifugation at 1000 rpm for 1 min, the plate was put in a 25° C. incubator for 15 min; the cathepsin substrate solution was then added at 8 µl/well, and centrifuged at 1000 rpm for 1 min; and finally, the fluorescence signal was read in Enspire, wherein the exciting light was at a wavelength of 400 nm, the emitting light was at a wavelength of 505 nm, and continuous reading was performed at 37° C. for 120 min.
(§4) Data analysis: the slope (S) for all the samples was calculated by ΔRFU(RFU2−RFU1) and time ΔT(T2−T1), including negative control (Enzyme Control, EC) and positive control (Inhibitor Control, IC: 10 μM (FF-FMK, F-F-FMK, FF-FMK and Z-FF-FMK), and the calculation formula was as followed: Relative inhibition rate %=(SEC−SS)/(SEC−SIC)*100. The IC50 for each compound was obtained by means of fitting by software GraphPad Prism 5.0.

[3] = target: T2, Cathepsin S (Homo sapiens, UniProt P25774); experiment: IC50 determination against Cathepsin S (Biovision kit K149-100); settings: CTSS
T2 construct: purchased Biovision K149-100
T2 sequence (P25774 115-331): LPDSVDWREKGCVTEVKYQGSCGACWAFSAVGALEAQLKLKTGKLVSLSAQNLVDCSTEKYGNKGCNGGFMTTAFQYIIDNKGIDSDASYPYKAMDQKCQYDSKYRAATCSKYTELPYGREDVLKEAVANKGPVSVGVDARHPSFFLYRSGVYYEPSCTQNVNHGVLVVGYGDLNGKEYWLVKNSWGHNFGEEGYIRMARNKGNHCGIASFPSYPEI
Description: as §1
IC50 of compounds against Cathepsin S was determined by using Cathepsin S Inhibitor Screening Kit (Product No. K149-100) from Biovision Company.
2.1.1.4 Preparation of Cathepsin S solution: Cathepsin S enzyme (46 μl) was added to Cathepsin S buffer (2254 μl), and mixed well, to prepare Cathepsin S enzyme solution with a volume of 2.3 ml, which was placed on ice for further use.
as §2
2.1.3.4 Cathepsin S: Cathepsin S substrate (90 μl) was added to Cathepsin S buffer (1710 μl), and mixed well, to prepare Cathepsin S substrate solution with a volume of 1.8 ml, which was placed on ice for further use.
as §3, §4

[4] = Exp-1, read-out: IC50 (nM) Exp-1
[5] = Exp-2, read-out: IC50 (nM) Exp-2
[6] = average of Exp-1 and Exp-2, read-out: Ave of IC50

How did the “Inhibition % (1 μM) replicate 1” value ([1]; 1 μM compound, replicate 1) turn out when CCCNC(=O)[C@H]1O[C@@H]1C(=O)N[C@H](C(=O)N1CCC[C@H]1C(=O)O)[C@@H](C)CC [zxy-60, CA-074, reference compound] was run?
Its value is 88.44%.

And the “Inhibition % (1 μM) replicate 2” value ([1]; 1 μM compound, replicate 2)?
Its value is 92.44%.

What about the “Inhibition % (10 μM) replicate 1” value ([1]; 10 μM compound, replicate 1) of the same compound?
Its value is 94.49%.

What about the “Inhibition % (10 μM) replicate 2” value ([1]; 10 μM compound, replicate 2) of the same compound?
The value was 91.36%.

And the IC50 [2, 4]?
Its IC50 is 252 nM.

What about the IC50 [2, 5] of the same compound?
Its IC50 is 245 nM.

And the IC50 [2, 6]?
Its IC50 is 248 nM.

What about the IC50 [3, 4] of the same compound?
Its IC50 is 3510 nM.

And the IC50 [3, 5]?
Its IC50 is 3230 nM.

And the IC50 [3, 6]?
Its IC50 is 3370 nM.
